# Test results as given in paper PMC12081876, “Identification of PTGR2 inhibitors as a new therapeutic strategy for diabetes and obesity” (EMBO Molecular Medicine, 2025).
# Values joined by “and” are separate entries in the source; they are usually repeats but may differ in a detail not shown here. Equal values may be shown once.
# Legend:
# [1] = tested on: HFHSD-fed obese C57BL6/J mice; assay: Intraperitoneal glucose tolerance test (ipGTT); assay type: in vivo, mouse; set-up: Figure 2H Average (glucose, ipGTT) / ipGTT / ipGTT glucose, Average / Blood glucose during glucose tolerance test (Figure 5L), Average: unit not given here; conditions: for ipGTT glucose, Average: BPRPT0245 100 mg/kg/day, group average (Figure 5L); for ipGTT glucose, individual mice: individual mouse values (Figure 5L, sheet BPRPT0245), in mg/dL (unit assumed)
# Description: (§1) Glucose tolerance was evaluated by the oral (OGTT) and intraperitoneal glucose tolerance test (ipGTT) after a 6-h fast. For the OGTT, glucose water (1 mg/g) was given by oral gavage, and tail blood glucose was measured with a glucometer (ACCU-CHEK Performa, Roche) at 0, 15, 30, 45, 60, 90, and 120 min. For the ipGTT, tail blood glucose was measured at 0, 15, 30, 45, 60, 90, and 120 min after intraperitoneal injection of glucose water (1 mg/g). For the insulin tolerance test (ITT), mice were fasted for 4 h and then injected intraperitoneally with 1 U/kg of insulin (Humulin R, Eli Lilly). Tail blood glucose was measured at 0, 15, 30, 45, 60, 90, 120, and 180 min.
# [2] = tested on: HFHSD-fed obese C57BL6/J mice; assay: Insulin tolerance test (ITT); assay type: in vivo, mouse; set-up: Figure 2I Average (glucose, ITT) / ITT / ITT glucose, Average / Blood glucose during insulin tolerance test (Figure 5M), Average: unit not given here; conditions: for ITT glucose, Average: BPRPT0245 100 mg/kg/day, group average (Figure 5M); for ITT glucose, individual mice: individual mouse values (Figure 5M, sheet BPRPT0245), in mg/dL (unit assumed)
# Description: as §1
# [3] = tested on: differentiated 3T3-L1 adipocytes; assay: Insulin-stimulated glucose uptake assay by (3H)2-deoxyglucose; assay type: cell-based, mouse; conditions: differentiated 3T3-L1 adipocytes
# [4] = tested on: HFHSD-fed obese C57BL6/J mice; assay: Body weight / diet-induced obesity in HFHSD-fed mice; assay type: in vivo, mouse; conditions: for Body weight, Avg: BPRPT0245 100 mg/kg/day (Figure 5J); for Body weight, Avg / Body weight, Average / Body weight (individual mouse): in g (unit assumed); for Body weight, Average / Body weight (individual mouse): Figure 5J; for Body weight, Average: 100 mg/kg/day; for Body weight (individual mouse): BPRPT0245 group
# [5] = 100 mg/kg/day oral, HFHSD-fed mice, vs vehicle
smiles,measurement,setting,value
Cc1[nH]c2nc(C(C)N3CCN(c4ccccc4)CC3)nn2c(=O)c1Cc1ccc(F)cc1 (stereo not shown) [BPRPT0245],"ipGTT glucose, Average",[1]; 0 minute,153.667
same,"ipGTT glucose, individual mice",[1]; 0 minute,129 and 127 and 202 and 168 and 162 and 152 and 179 and 142 and 147 and 175 and 150 and 108 and 169
same,glucose tolerance (ipGTT),[1]; [5],improved glucose tolerance
same,"ipGTT glucose, Average",[1]; 15 minute,305
same,"ipGTT glucose, individual mice",[1]; 15 minute,325 and 328 and 302 and 300 and 251 and 345 and 316 and 291 and 297 and 290 and 312 and 319 and 271 and 303
same,"ipGTT glucose, Average",[1]; 30 minute,285.933
same,"ipGTT glucose, individual mice",[1]; 30 minute,318 and 250 and 316 and 269 and 323 and 308 and 260 and 273 and 295 and 280 and 325 and 283 and 289 and 215 and 285
same,"ipGTT glucose, Average",[1]; 45 minute,242.333
same,"ipGTT glucose, individual mice",[1]; 45 minute,261 and 181 and 275 and 209 and 208 and 318 and 231 and 278 and 227 and 225 and 336 and 288 and 173 and 200
same,"ipGTT glucose, Average",[1]; 60 minute,219.733
same,"ipGTT glucose, individual mice",[1]; 60 minute,262 and 155 and 167 and 252 and 207 and 264 and 223 and 275 and 201 and 277 and 228 and 194 and 179 and 205
same,"ipGTT glucose, Average",[1]; 90 minute,192.133
same,"ipGTT glucose, individual mice",[1]; 90 minute,204 and 144 and 134 and 174 and 173 and 260 and 232 and 213 and 160 and 193 and 231 and 169 and 117 and 218
same,"ipGTT glucose, Average",[1]; 120 minute,185.4
same,"ipGTT glucose, individual mice",[1]; 120 minute,218 and 166 and 140 and 179 and 201 and 221 and 215 and 198 and 168 and 199 and 217 and 208 and 174 and 111
same,"ITT glucose, Average",[2]; 0 minutes,210.867
same,"ITT glucose, individual mice",[2]; 0 minutes,210 and 207 and 221 and 237 and 223 and 175 and 211 and 215 and 171 and 203 and 242 and 227 and 190
same,insulin sensitivity (ITT),[2]; [5],improved
same,"ITT glucose, Average",[2]; 15 minutes,143.067
same,"ITT glucose, individual mice",[2]; 15 minutes,156 and 120 and 180 and 189 and 164 and 136 and 112 and 129 and 113 and 144 and 148 and 135 and 145
same,"ITT glucose, Average","[2]; 30 minutes, 100 mg/kg/day",94.067 and 94.0667
same,"ITT glucose, individual mice",[2]; 30 minutes,106 and 97 and 111 and 100 and 102 and 82 and 74 and 96 and 105 and 107 and 84 and 69 and 88
same,"ITT glucose, Average","[2]; 45 minutes, 100 mg/kg/day",78.667 and 78.6667
same,"ITT glucose, individual mice",[2]; 45 minutes,95 and 77 and 90 and 86 and 83 and 78 and 69 and 70 and 74 and 85 and 61 and 71
same,"ITT glucose, Average",[2]; 60 minutes,69.8
same,"ITT glucose, individual mice",[2]; 60 minutes,65 and 78 and 72 and 69 and 82 and 52 and 61 and 71 and 75 and 90 and 68 and 59
same,"ITT glucose, Average","[2]; 90 minutes, 100 mg/kg/day",59.667 and 59.6667
same,"ITT glucose, individual mice",[2]; 90 minutes,57 and 51 and 69 and 75 and 72 and 54 and 65 and 46 and 45 and 59 and 84 and 67 and 53
same,"ITT glucose, Average","[2]; 120 minutes, 100 mg/kg/day",71.467 and 71.4667
same,"ITT glucose, individual mice",[2]; 120 minutes,61 and 65 and 87 and 74 and 76 and 66 and 70 and 69 and 114 and 57 and 56
same,"ITT glucose, Average","[2]; 180 minutes, 100 mg/kg/day",90.933 and 90.9333
same,"ITT glucose, individual mice",[2]; 180 minutes,83 and 84 and 113 and 70 and 94 and 69 and 85 and 73 and 98 and 104 and 130 and 99 and 76
same,insulin-stimulated glucose uptake,[3],augmented insulin-stimulated glucose uptake of differentiated 3T3-L1 adipocytes
same,diet-induced obesity (body weight),[4]; [5],significantly prevented diet-induced obesity
same,"Body weight, Avg",[4]; time point 0,30.59
same,"Body weight, Avg",[4]; time point 1,31.2
same,"Body weight, Avg",[4]; time point 2,31.673
same,"Body weight, Avg",[4]; time point 3,32.167
same,"Body weight, Avg",[4]; time point 4,32.92
same,"Body weight, Avg",[4]; time point 5,32.837
same,"Body weight, Avg",[4]; time point 6,33.673
same,"Body weight, Avg",[4]; time point 7,33.323
same,"Body weight, Avg",[4]; time point 8,33.923
same,"Body weight, Avg",[4]; time point 9,34.59
same,"Body weight, Avg",[4]; time point 10,35.623
same,"Body weight, Avg",[4]; time point 11,36.193
same,"Body weight, Avg",[4]; time point 12,37.113
same,"Body weight, Avg",[4]; time point 13,36.957
same,"Body weight, Avg",[4]; time point 14,38.33
same,"Body weight, Avg",[4]; time point 15,38.607
same,"Body weight, Avg",[4]; time point 16,39.303
same,"Body weight, Avg",[4]; time point 17,40.533
same,"Body weight, Avg",[4]; time point 18,40.933
same,"Body weight, Avg",[4]; time point 19,42.11
same,"Body weight, Avg",[4]; time point 20,41.483
same,"Body weight, Avg",[4]; time point 21,42.933
same,"Body weight, Avg",[4]; time point 22,43.33
same,"Body weight, Avg",[4]; time point 23,44.06
same,"Body weight, Avg",[4]; time point 24,44.36
same,"Body weight, Avg",[4]; time point 25,45.28
same,"Body weight, Average",[4]; week 0,30.59
same,Body weight (individual mouse),[4]; week 0,30 and 33.8 and 29.8 and 28.35
same,"Body weight, Average",[4]; week 1,31.2
same,Body weight (individual mouse),[4]; week 1,30.45 and 34.45 and 30.15 and 29.55
same,"Body weight, Average",[4]; week 2,31.6733
same,Body weight (individual mouse),[4]; week 2,31.05 and 34.25 and 30.6 and 30.25
same,"Body weight, Average",[4]; week 3,32.1667
same,Body weight (individual mouse),[4]; week 3,31.8 and 34.4 and 30.9 and 31.9
same,"Body weight, Average",[4]; week 4,32.92
same,Body weight (individual mouse),[4]; week 4,32.8 and 36.5 and 31.8 and 33.15
same,"Body weight, Average",[4]; week 5,32.8367
same,Body weight (individual mouse),[4]; week 5,34.2 and 36 and 31.6
same,"Body weight, Average",[4]; week 6,33.6733
same,Body weight (individual mouse),[4]; week 6,34.5 and 37.15 and 31.9
same,"Body weight, Average",[4]; week 7,33.3233
same,Body weight (individual mouse),[4]; week 7,31.45 and 36.9 and 31.75
same,"Body weight, Average",[4]; week 8,33.9233
same,Body weight (individual mouse),[4]; week 8,34.8 and 36.35 and 31.55
same,"Body weight, Average",[4]; week 9,34.59
same,Body weight (individual mouse),[4]; week 9,35.75 and 38 and 32.05 and 35.25
same,"Body weight, Average",[4]; week 10,35.6233
same,Body weight (individual mouse),[4]; week 10,38.1 and 37.65 and 32.65 and 35.65
same,"Body weight, Average",[4]; week 11,36.1933
same,Body weight (individual mouse),[4]; week 11,39.55 and 38.45 and 32.7 and 35.65
same,"Body weight, Average",[4]; week 12,37.1133
same,Body weight (individual mouse),[4]; week 12,40.35 and 39.35 and 33.6 and 37.1
same,"Body weight, Average",[4]; week 13,36.9567
same,Body weight (individual mouse),[4]; week 13,40.15 and 39.25 and 33.15 and 37.05
same,"Body weight, Average",[4]; week 14,38.33
same,Body weight (individual mouse),[4]; week 14,42.7 and 39.9 and 33.45 and 38.65
same,"Body weight, Average",[4]; week 15,38.6067
same,Body weight (individual mouse),[4]; week 15,43.6 and 39.65 and 33.2 and 38.2
same,"Body weight, Average",[4]; week 16,39.3033
same,Body weight (individual mouse),[4]; week 16,45.5 and 40.05 and 32.8 and 39.05
same,"Body weight, Average",[4]; week 17,40.5333
same,Body weight (individual mouse),[4]; week 17,47.45 and 41.6 and 33.85 and 39.8
same,"Body weight, Average",[4]; week 18,40.9333
same,Body weight (individual mouse),[4]; week 18,47.8 and 41.55 and 34.1 and 40.8
same,"Body weight, Average",[4]; week 19,42.11
same,Body weight (individual mouse),[4]; week 19,50.9 and 42.65 and 34.9 and 42.2
same,"Body weight, Average",[4]; week 20,41.4833
same,Body weight (individual mouse),[4]; week 20,50.45 and 41.95 and 34.25 and 41.75
same,"Body weight, Average",[4]; week 21,42.9333
same,Body weight (individual mouse),[4]; week 21,52.5 and 42.9 and 35.35 and 43.3
same,"Body weight, Average",[4]; week 22,43.33
same,Body weight (individual mouse),[4]; week 22,53.9 and 43.35 and 35.75 and 44.95
same,"Body weight, Average",[4]; week 23,44.06
same,Body weight (individual mouse),[4]; week 23,55.05 and 46.1 and 36.75 and 45.25
same,"Body weight, Average",[4]; week 24,44.36
same,Body weight (individual mouse),[4]; week 24,50.35 and 46.35 and 37 and 46.4
same,"Body weight, Average",[4]; week 25,45.28
same,Body weight (individual mouse),[4]; week 25,54.2 and 47.6 and 36.05 and 48.2
